Entries after “also recorded” stand apart in the source; their conditions may differ. Peptide text beside a SMILES is read from it.
Experiments:
[1] = tested on: rat microglia stimulated with Aβ1-42; human microglia stimulated with fraction S5; assay: Drug blockade of Aβ induced neuron killing by rat and human microglia; format: cell-based; conditions: vitamin E 100 μM, catalase 25 units/ml, glutathione 100 μM, L-NIO 10 μM, DPI 300 nM, glutamate antagonists 10 μM
Description: A number of cytotoxic factors have been reported to participate in Aβ neurotoxicity, including radicals (Behl et al., 1994), nitric oxide (Meda et al., 1995), cytokines (Mrak et al., 1995), and NMDA-like molecules (Giulian et al., 1995a).

[2] = format: physicochemical
Experimental: Properties and sources of amyloid peptides. […] Solubility of peptides is described for chemically-defined culture media at 37° C.

[3] = tested on: HEK cells expressing NMDA1b/2A; assay: NTox exposure of HEK cells expressing NMDA receptors (trypan blue); format: cell-based, human
Description: FIG. 6A) Photomicrograph of trypan blue(+) control HEK cells exposed to NTox.
Presence of neurotoxic activity will be determined by reduction in cell number, changes in biochemical markers such as loss of cell metabolic function, release of intracellular material, penetration of impermeant dyes, such as and not limited to fluorescent nuclear dyes and trypan blue (FIG. 6), reduction of the number of neurons, loss of neurofilament or synaptophysin, release of lactate dehydrogenase, or other evidence of cell injury.

[4] = tested on: microglia stimulated by Aβ1-42; assay: In vitro screening of drugs which inactivate microglia stimulated by Aβ1-42; format: cell-based; conditions: mixed with Aβ peptides; for prevention of neurotoxic microglia, signal transduction inhibitors: test concentrations 0.01 to 100 μM
Description: Such in vitro assays permit rapid screening of drugs with therapeutic potential for Alzheimer Disease.
Such in vitro assays permit rapid screening of drugs which serve as lead compounds for development of therapeutics for Alzheimer Disease.
Once activated by plaque components, microglia release neurotoxic agents. Although many drugs are known to suppress the immune system outside the brain, it is not known which drugs actually have the ability to inactivative plaque-stimulated microglia within the brain and thus prevent the immune-mediated damage caused by Alzheimer Disease. […] Activated microglia also require intracellular events signaled by signal transducers, to convert the plaque or Aβ complex formation with microglia into cellular events which lead to the production and release of neurotoxins including NTox. […] Thus, the use of the microglia-neuron assay systems allowed identification of specific drug families with value in the treatment of Alzheimer Disease.

neurons = assay: Neuroprotective effects of NTox-like compounds; format: cell-based
[5] = tested on: rat hippocampal cultures supplemented with microglia; assay: Neurotoxicity assay: hippocampal neuron cultures supplemented with microglia (induction of neurotoxic microglia); format: cell-based
Description: Rat microglia were isolated from newborn animals using the method of Giulian and Baker, 1986, with recovery of >98% homogenous population monitored by binding the fluorescent probe acetylated low density lipoprotein labeled with 1,1′-dioctadecyl-3,3,3′,3′-tetramethyl-indo-carbocyanine [Dil-ac-LDL]). Amyloid proteins were isolated from AD neocortical gray matter laden with neuritic and core plaques with final separations involving a discontinuous sucrose gradient. […] Cultured neurons prepared from rat hippocampus consisted of process-bearing neurons (10-20% of total cell population) atop a bed of astroglia (>70%) mixed with microglia (5-10%). In order to eliminate microglia, cultures were exposed saporin (a ribosome-inactivating protein) coupled to acetylated LDL (ac-LDL) for 10 pg/ml for 18 hours. […] After 14 days in vitro, cultures (with a final concentration of 0.6% serum) were exposed to test substances in the presence or absence of exogenous microglia for 72 hours. […] Data were expressed as % mean survival expressed in terms of parallel untreated control cultures after scoring at least 8 randomly selected fields for each of 3 coverslips from at least 3 independent experiments. […]

rat microglia = assay: Binding of Aβ peptide-coupled fluorescent microspheres to microglia; conditions: 1 micron fluorescent microspheres
Experimental: Fluoresbrite carboxylate microspheres (YG 1.0 μm, Polysciences; 0.5 ml of a 2.5% suspension) were washed twice in 0.1 M carbonate buffer (pH 9.6) and three times in 0.02 M sodium phosphate (pH 4.5). Carbodiimide was then added dropwise to a final concentration of 1% and the suspension mixed for 4 hours at room temperature. Following 3 more washes in 0.02M sodium phosphate, the pellet was resuspended in 1.2 ml of 0.2 M borate buffer (pH 8.5) and 300 μg Aβ (or control peptide) and 5% DMSO added. After overnight mixing at room temperature, the microspheres were blocked by 1 M glycine (pH 8.0) for 30 minutes and washed in 10 mg/ml BSA in phosphate buffer.
To delineate further which portions of the Aβ peptide served as a microglial binding site, a variety of synthetic peptides coupled to 1 micron diameter microspheres was next compared.

brain neocortex = assay: Microsphere implants in brain neocortex; format: in vivo
Description: FIGS. 7A, B, and C show SpheresAβ1-42 in vivo. Weeks after implantation of large microspheres (250 micron diameter) remain embedded within brain neocortex (FIG. 7A). […] Microglia were visualized by uptake of fluorescent labeled acetylated LDL, Dil-ac-LDL Bar=40 μm, FIG. 7A; 25 μm FIGS. 7B and C.
Data support histological changes.
In vivo binding, activation, and neurotoxicity assays involve infusion of a tagged plaque component coupled to a solid support such as microspheres (FIG. 7) into a mammalian brain. Following infusion of materials, a test compound may be co-injected into the brain intraventricularly or intracranially by cannula with delivery systems including syringes or implanted osmotic pumps. A test compound may also be delivered systemically by intraperitoneal, intravenous, intra-arterial, nasal, or oral routes. Evidence of immune activation of the brain by a plaque component may be monitored using histological, biochemical, or molecular methods such as quantitative reverse transcriptase polymerase chain reaction method to identify cell markers of immune responses including surface proteins, enzymes, or cytokines (FIG. 8). The production of neurotoxic activity may be assayed by histochemical (FIG. 7) or biochemical to identify cell markers of immune responses including injury or destruction of neurons. […]

microglia = assay: SpheresAβ1-42 binding to microglia; parameters: species or system rat; conditions: for SpheresAβ1-42 binding to microglia in presence of GAGs or scavenger receptor ligands: heparin sulfate 50 μg/ml, dextran sulfate 500 μg/ml, ac-LDL 200 μg/ml
Experimental: (§1) Isolated microglia (1000 per mm^2 ) were placed atop 16 mm glass coverslips in 24-well culture plates. Each well then received 250,000 SpheresAβ1-42 or Spheresmal-BSA in the presence or absence of Aβ peptides, GAGs, or scavenger receptor ligands. Binding assays were carried out at 37° C. for 4 hours after which coverslips were dipped 10 times in phosphate buffer and fixed with 4% buffered paraformaldehyde. Microsphere adherence to cells was scored at 200 magnification with phase/fluorescence microscopy. Data, expressed as % inhibition of sphere binding, was calculated from total number of spheres per field noted for control cultures receiving spheres only. Values are based upon at least 3 coverslips from 2 independent experiments. Fluoresbrite carboxylate YG microspheres (1.0 micron diameters; 0.5 ml of a 2.5% suspension) were activated with 1% carbodiimide for 4 hr at room temperature. Washed spheres were resuspended in 0.2 M borate buffer (pH 8.5) in the presence of 300 μg Aβ or 400 μg BSA in 6% DMSO. After overnight mixing at room temperature, the spheres were washed extensively and blocked by 1 M glycine (pH 8.0) for 30 minutes. Maleylation of coupled BSA was carried out at room temperature by adding 1 M maleic anhdyride in acetonitrile at pH 9.0.

scavenger receptors = assay: Spheresmal-BSA binding to microglia; parameters: species or system rat
Experimental: as §1

[6] = trypsin 5000 units/ml 60 min, heparinase 2 x 0.01 units/ml, chondroitinase ABC 2 x 0.02 units/ml

NC(CCCP(=O)(O)O)C(=O)O (stereo not drawn) [AP5]
protection against microglia-mediated neuron killing [1]: prevented neuronal loss; also recorded: prevented neuron death

NC(CCCCCP(=O)(O)O)C(=O)O (stereo not drawn) [AP7]
protection against microglia-mediated neuron killing [1]: prevented neuronal loss; also recorded: blocked neuron death

CC(C)C[C@H](NC(=O)[C@H](CCCCN)NC(=O)[C@H](CCC(N)=O)NC(=O)[C@H](Cc1cnc[nH]1)NC(=O)[C@H](Cc1cnc[nH]1)NC(=O)[C@@H](N)C(C)C)C(=O)N[C@H](C(=O)N[C@@H](Cc1ccccc1)C(=O)N[C@@H](Cc1ccccc1)C(=O)N[C@@H](C)C(=O)N[C@@H](CCC(=O)O)C(=O)N[C@@H](CC(=O)O)C(=O)N[C@H](C(=O)NCC(=O)N[C@@H](CO)C(=O)N[C@@H](CC(N)=O)C(=O)N[C@@H](CCCCN)C(=O)O)C(C)C)C(C)C [Aβ12-28]
Solubility [2]: soluble

CC[C@H](C)[C@H](NC(=O)[C@H](C)NC(=O)CNC(=O)[C@H](CCCCN)NC(=O)[C@H](CC(N)=O)NC(=O)[C@H](CO)NC(=O)CNC(=O)[C@@H](NC(=O)[C@H](CC(=O)O)NC(=O)[C@H](CCC(=O)O)NC(=O)[C@H](C)NC(=O)[C@H](Cc1ccccc1)NC(=O)[C@H](Cc1ccccc1)NC(=O)[C@@H](NC(=O)[C@@H](N)CC(C)C)C(C)C)C(C)C)C(=O)N[C@H](C(=O)NCC(=O)N[C@@H](CC(C)C)C(=O)N[C@@H](CCSC)C(=O)N[C@H](C(=O)NCC(=O)NCC(=O)N[C@H](C(=O)N[C@H](C(=O)N[C@H](C(=O)N[C@@H](C)C(=O)O)[C@@H](C)CC)C(C)C)C(C)C)C(C)C)[C@@H](C)CC [Aβ17-42] (H-LVFFAEDVGSNKGAIIGLMVGGVVIA-OH; N-terminus and C-terminus assumed)
Solubility [2]: very insoluble

CC[C@H](C)[C@H](NC(=O)[C@H](C)NC(=O)CNC(=O)[C@H](CCCCN)NC(=O)[C@H](CC(N)=O)NC(=O)[C@H](CO)NC(=O)CN)C(=O)N[C@H](C(=O)NCC(=O)N[C@@H](CC(C)C)C(=O)N[C@@H](CCSC)C(=O)O)[C@@H](C)CC [Aβ25-35] (H-GSNKGAIIGLM-OH; N-terminus and C-terminus assumed)
Solubility [2]: soluble

c1ccc([I+]c2ccccc2)cc1 [DPI, diphenyl iodonium]
protection against microglia-mediated neuron killing [1]: no reduction of microglia-mediated neuron killing; also recorded: No protective effects were observed

N[C@H](CCC(=O)NCS(=O)(=O)O)C(=O)O [GAMS]
protection against microglia-mediated neuron killing [1]: did not

CC(=N)NCCC[C@H](N)C(=O)O.Cl [L-NIO, L-N-5-(1-imin-oethyl)ornithine hydrochloride]
protection against microglia-mediated neuron killing ([1]; hydrochloride): no reduction of microglia-mediated neuron killing; also recorded: No protective effects were observed

C[C@]12N[C@H](Cc3ccccc31)c1ccccc12 [MK-801]
blockade of NTox killing effect [3]: could be blocked
protection against microglia-mediated neuron killing [1]: prevented neuronal loss
protection against microglia-mediated neuron killing ([1]; listed as MK801): blocked neuron death

CCN(CC)CCCC(C)Nc1ccnc2cc(Cl)ccc12 (stereo not drawn) [chloroquine]
prevention of neurotoxic microglia, immuno-suppressive drugs ([4]; test concentrations 0.1 to 10 μM): had a protective effect; also recorded: block neuron killing

COc1c(C=O)c(O)cc2c1C(=O)c1ccccc1C2=O [damacanthal]
prevention of neurotoxic microglia, signal transduction inhibitors [4]: had a protective effect

O=c1c(-c2ccc(O)cc2)coc2cc(O)cc(O)c12 [genistein]
prevention of neurotoxic microglia, signal transduction inhibitors [4]: had a protective effect

N[C@@H](CCC(=O)N[C@@H](CS)C(=O)NCC(=O)O)C(=O)O [glutathione]
protection against microglia-mediated neuron killing [1]: no reduction of microglia-mediated neuron killing; also recorded: did not block microglial killing of neurons

CC(C(O)c1ccc(O)cc1)N1CCC(Cc2ccccc2)CC1 (stereo not drawn) [ifenprodil]
protection against microglia-mediated neuron killing [1]: prevented neuronal loss; also recorded: blocked neuron death

NCCc1ccc(O)cc1 [tyramine]
protection of neurons against quinolinic acid (neurons; 100 μM quinolinic acid (QUIN)): protective effect did not occur; also recorded: did not block
protection of neurons against NTox / Aβ1-42-stimulated microglia (neurons; microglia stimulated with Aβ1-42 or isolated NTox applied to neurons): prevented neuronal injury; also recorded: did not damage neurons in the presence of tyramine

SpheresAβ1-42: Aβ1-42 coupled to microspheres
capacity to elicit neurotoxic microglia, coupled to microspheres or in solution ([5]; 250,000 microspheres per culture, 100,000 microglia per culture, 72 hour incubation): induced neuron killing
uptake of peptide-coupled microspheres by microglia in culture (rat microglia): rapidly engulfed by cultured microglia
reactive microglia around implanted microspheres (brain neocortex; 250 micron spheres, weeks after implantation): chronically stimulate the presence of reactive cells
increase in scavenger receptor II mRNA in tissue surrounding implant (brain neocortex; two weeks after implantation, vs undamaged control tissue or SphereBSA): 5 fold

catalase
protection against microglia-mediated neuron killing [1]: no reduction of microglia-mediated neuron killing; also recorded: did not block microglial killing of neurons

chondroitin sulfate
SpheresAβ1-42 binding to microglia in presence of GAGs or scavenger receptor ligands (microglia): not similar compounds; also recorded: only heparin sulfate blocked

dextran sulfate
Spheresmal-BSA binding to microglia in presence of ligands (scavenger receptors; dextran sulfate 500 μg/ml, ac-LDL 200 μg/ml, Aβ1-16 10 μmole/l): blocked Spheresmal-BSA binding
SpheresAβ1-42 binding to microglia in presence of GAGs or scavenger receptor ligands (microglia): not similar compounds
SpheresAβ1-42 binding to microglia in presence of GAGs or scavenger receptor ligands (microglia; listed as dextm sulfate): only heparin sulfate blocked

heparin sulfate
SpheresAβ1-42 binding to microglia in presence of GAGs or scavenger receptor ligands (microglia): reduction of binding; also recorded: blocked SpheresAβ1-42 binding
SpheresAβ1-42 binding to microglia in presence of GAGs or scavenger receptor ligands (microglia; listed as heparan sulfate): block Aβ binding to microglia

rodent Aβ1-42: rodent form of Aβ1-42 (DAEFGHDSGFEVRHQKLVFFAEDVGSNKGAIIGLMVGGVVIA; Amyloid-beta protein 42; UniProt P12023 672-713, looked up, fragment)
induction of neurotoxic microglia / neuron killing in presence of microglia ([5]; peptide in solution, typically 1 μmole/l, 72 hours, microglia 500 per mm^2): does not induce toxicity

trypsin
Spheresmal-BSA binding after enzymatic pre-treatment of microglia (scavenger receptors; [6]): reduced
SpheresAβ1-42 binding after enzymatic pre-treatment of microglia (microglia; [6]): reduced

vitamin E
protection against microglia-mediated neuron killing [1]: no reduction of microglia-mediated neuron killing; also recorded: did not block microglial killing of neurons
